The values that follow come from the supplement of paper PMC10307832.

Test in all cases: relative viability (nuclei count vs DMSO), 5 days (fraction); higher = more cells survive
Compound in test [1]: C[C@@H](C(=O)N[C@@H](C1CCCCC1)C(=O)N2CCC[C@H]2C(=O)N[C@@H]3[C@@H](CC4=CC=CC=C34)OCC#CC#CCO[C@@H]5CC6=CC=CC=C6[C@@H]5NC(=O)[C@@H]7CCCN7C(=O)[C@H](C8CCCCC8)NC(=O)[C@H](C)NC)NC [AZD5582] + Cc1nc(NC(=O)N2CCC[C@H]2C(N)=O)sc1-c1ccnc(C(C)(C)C(F)(F)F)c1 [Alpelisib] (partner 2 µM)
The method, boiled down:
(§1)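 Five library-drug doses in √10 steps were combined with a fixed anchor-drug dose, or a single drug was given alone, by pin tool to lung cancer cell lines in 1536-well plates the day after seeding. Nuclei were stained and counted after 5 days. Relative viability is the nuclei count in treated wells over that in vehicle wells, taken as the median of duplicate plates.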

Compound in test [2]: C[C@@H](C(=O)N[C@@H](C1CCCCC1)C(=O)N2CCC[C@H]2C(=O)N[C@@H]3[C@@H](CC4=CC=CC=C34)OCC#CC#CCO[C@@H]5CC6=CC=CC=C6[C@@H]5NC(=O)[C@@H]7CCCN7C(=O)[C@H](C8CCCCC8)NC(=O)[C@H](C)NC)NC [AZD5582] + Nc1ncn([C@H]2C[C@H](O)[C@@H](CO)O2)c(=O)n1 [Decitabine] (partner 2 µM)
The method, boiled down:
as §1

Compound in test [3]: Cn1nnc2c(C(N)=O)ncn2c1=O [Temozolomide] + CS(=O)(=O)CCNCc1ccc(-c2ccc3ncnc(Nc4ccc(OCc5cccc(F)c5)c(Cl)c4)c3c2)o1 [Lapatinib] (partner 2 µM)
The method, boiled down:
as §1

Compound in test [4]: Cn1nnc2c(C(N)=O)ncn2c1=O [Temozolomide] + Cc1nc(NC(=O)N2CCC[C@H]2C(N)=O)sc1-c1ccnc(C(C)(C)C(F)(F)F)c1 [Alpelisib] (partner 2 µM)
The method, boiled down:
as §1

NCI-H3122: the relative viability in test [1] (first compound 0.001581 µM) was 0.774; in test [1] (first compound 0.005 µM), 0.858; in test [1] (first compound 0.01581 µM) it was 0.836; in test [1] (first compound 0.05 µM) it was 0.307; in test [2] (first compound 0.001581 µM) it was 0.476; in test [2] (first compound 0.005 µM), 0.384. The relative viability was 0.42 in test [2] (first compound 0.01581 µM); 0.224 in test [2] (first compound 0.05 µM); 1.01 in test [3] (first compound 0.2 µM); 1.03 in test [3] (first compound 0.6325 µM); 1.09 in test [3] (first compound 2 µM); 0.968 in test [3] (first compound 6.325 µM). Moreover, the relative viability in test [3] (first compound 20 µM) is 1.04; in test [4] (first compound 0.2 µM), 0.75; in test [4] (first compound 0.6325 µM), 0.776; in test [4] (first compound 2 µM), 0.795; in test [4] (first compound 6.325 µM), 0.73; in test [4] (first compound 20 µM), 0.663.

PC-3 [JPC-3]: the relative viability in test [1] (first compound 0.001581 µM) amounted to 0.889; in test [1] (first compound 0.005 µM) it was 0.966; in test [1] (first compound 0.01581 µM) it was 0.999; in test [1] (first compound 0.05 µM), 0.703; in test [2] (first compound 0.001581 µM) it was 0.737; in test [2] (first compound 0.005 µM), 0.641. In addition, the relative viability in test [2] (first compound 0.01581 µM) stood at 0.855; in test [2] (first compound 0.05 µM), 0.431; in test [3] (first compound 0.2 µM), 0.504; in test [3] (first compound 0.6325 µM) it was 0.466; in test [3] (first compound 2 µM), 0.511; in test [3] (first compound 6.325 µM), 0.461. In addition, the relative viability in test [3] (first compound 20 µM) came out at 0.437; in test [4] (first compound 0.2 µM) it was 1.09; in test [4] (first compound 0.6325 µM), 0.982; in test [4] (first compound 2 µM), 0.979; in test [4] (first compound 6.325 µM), 1.07; in test [4] (first compound 20 µM), 0.396.

PC-14: the relative viability was determined as 0.834 in test [1] (first compound 0.001581 µM); 1.03 in test [1] (first compound 0.005 µM); 0.927 in test [1] (first compound 0.01581 µM); 0.971 in test [1] (first compound 0.05 µM); 0.12 in test [2] (first compound 0.001581 µM); 0.165 in test [2] (first compound 0.005 µM). For the same cell line, the relative viability in test [2] (first compound 0.01581 µM) amounted to 0.205; in test [2] (first compound 0.05 µM), 0.116; in test [3] (first compound 0.2 µM), 0.318; in test [3] (first compound 0.6325 µM), 0.321; in test [3] (first compound 2 µM) it was 0.396; in test [3] (first compound 6.325 µM), 0.343. For the same cell line, the relative viability in test [3] (first compound 20 µM) amounted to 0.297; in test [4] (first compound 0.2 µM), 1.08; in test [4] (first compound 0.6325 µM) it was 0.958; in test [4] (first compound 2 µM), 0.95; in test [4] (first compound 6.325 µM), 0.867; in test [4] (first compound 20 µM), 0.217.

For RERF-LC-KJ, the relative viability in test [1] (first compound 0.005 µM) is 0.532; in test [1] (first compound 0.01581 µM), 0.781; in test [1] (first compound 0.05 µM) it was 0.639; in test [2] (first compound 0.01581 µM) it was 0.779; in test [2] (first compound 0.05 µM), 0.208; in test [3] (first compound 0.2 µM) it was 0.819. Further, the relative viability in test [3] (first compound 0.6325 µM) came to 0.922; in test [3] (first compound 2 µM), 0.909; in test [3] (first compound 6.325 µM) it was 0.767; in test [3] (first compound 20 µM), 0.846; in test [4] (first compound 0.2 µM), 0.638; in test [4] (first compound 0.6325 µM), 0.88. In addition, the results for the relative viability in test [4] (first compound 2 µM), in test [4] (first compound 6.325 µM) and in test [4] (first compound 20 µM) were 0.923, 0.861 and 0.743, respectively.

Regarding SK-LU-1, the relative viability was 0.744 in test [1] (first compound 0.001581 µM); 0.554 in test [1] (first compound 0.005 µM); 0.95 in test [1] (first compound 0.01581 µM); 0.243 in test [1] (first compound 0.05 µM); 0.535 in test [2] (first compound 0.001581 µM); 0.379 in test [2] (first compound 0.005 µM). Further, the relative viability stood at 0.673 in test [2] (first compound 0.01581 µM); 0.21 in test [2] (first compound 0.05 µM); 1.08 in test [3] (first compound 0.2 µM); 0.906 in test [3] (first compound 0.6325 µM); 0.803 in test [3] (first compound 2 µM); 0.377 in test [3] (first compound 6.325 µM). Also, the relative viability in test [3] (first compound 20 µM) is 0.407; in test [4] (first compound 0.2 µM) it was 1.43; in test [4] (first compound 0.6325 µM) it was 0.976; in test [4] (first compound 2 µM) it was 0.901; in test [4] (first compound 6.325 µM), 0.525; in test [4] (first compound 20 µM), 0.394.

With SK-MES-1, the relative viability in test [1] (first compound 0.001581 µM) was 0.773; in test [1] (first compound 0.005 µM), 0.995; in test [1] (first compound 0.01581 µM) it was 0.808; in test [1] (first compound 0.05 µM) it was 0.947; in test [2] (first compound 0.001581 µM), 0.336; in test [2] (first compound 0.005 µM), 0.365. In addition, the relative viability in test [2] (first compound 0.01581 µM) came to 0.416; in test [2] (first compound 0.05 µM), 0.347; in test [3] (first compound 0.2 µM), 0.478; in test [3] (first compound 0.6325 µM), 0.466; in test [3] (first compound 2 µM), 0.463; in test [3] (first compound 6.325 µM), 0.505. Also, the relative viability in test [3] (first compound 20 µM) came out at 0.458; in test [4] (first compound 0.2 µM) it was 1.06; in test [4] (first compound 0.6325 µM) it was 0.919; in test [4] (first compound 2 µM), 1.06; in test [4] (first compound 6.325 µM), 0.836; in test [4] (first compound 20 µM) it was 0.778.

SW 1573: the relative viability worked out at 0.856 in test [1] (first compound 0.001581 µM); 0.705 in test [1] (first compound 0.005 µM); 0.673 in test [1] (first compound 0.01581 µM); 1.01 in test [1] (first compound 0.05 µM); 0.551 in test [2] (first compound 0.001581 µM); 0.631 in test [2] (first compound 0.005 µM). In addition, the relative viability in test [2] (first compound 0.01581 µM) came to 0.674; in test [2] (first compound 0.05 µM), 0.685; in test [3] (first compound 0.2 µM), 1.13; in test [3] (first compound 0.6325 µM) it was 1.17; in test [3] (first compound 2 µM) it was 1.04; in test [3] (first compound 6.325 µM), 0.897. For the same cell line, the relative viability stood at 1.02 in test [3] (first compound 20 µM); 0.714 in test [4] (first compound 0.2 µM); 0.783 in test [4] (first compound 0.6325 µM); 0.809 in test [4] (first compound 2 µM); 0.69 in test [4] (first compound 6.325 µM); 0.8 in test [4] (first compound 20 µM).

As to UMC-11, the relative viability amounted to 1.05 in test [1] (first compound 0.001581 µM); 1.11 in test [1] (first compound 0.005 µM); 0.968 in test [1] (first compound 0.01581 µM); 1.08 in test [1] (first compound 0.05 µM); 0.637 in test [2] (first compound 0.001581 µM); 0.638 in test [2] (first compound 0.005 µM). The relative viability came out at 0.731 in test [2] (first compound 0.01581 µM); 0.71 in test [2] (first compound 0.05 µM); 1.09 in test [3] (first compound 0.2 µM); 1.06 in test [3] (first compound 0.6325 µM); 1.09 in test [3] (first compound 2 µM); 0.894 in test [3] (first compound 6.325 µM). In addition, the relative viability in test [3] (first compound 20 µM) is 0.685; in test [4] (first compound 0.2 µM), 1.08; in test [4] (first compound 0.6325 µM) it was 0.829; in test [4] (first compound 2 µM) it was 1.02; in test [4] (first compound 6.325 µM), 0.934; in test [4] (first compound 20 µM), 0.518.
